# Experimental data: ChEMBL document CHEMBL5528064, “Invention of MK-7845, a SARS-CoV-2 3CL Protease Inhibitor Employing a Novel Difluorinated Glutamine Mimic” (J Med Chem, 2024)
# System: not listed separately
# Test: Apparent permeability in MDCK cells
# Format: ADME, cell-based, Canis lupus familiaris
# Settings: dog
row,Structure (SMILES),Papp [×10⁻⁶ cm/s]
1,COC(=O)N[C@H](C(=O)N1CCC2(CC2)C[C@H]1C(=O)N[C@@H](CCC(C)(F)F)C(=O)C(=O)NC1CC1)C(C)(C)C,16
2,CC(C)(C)NC(=O)N[C@H](C(=O)N1C[C@H]2[C@@H]([C@H]1C(=O)N[C@@H](C[C@@H]1CCNC1=O)C(=O)C(N)=O)C2(C)C)C(C)(C)C,< 1.13

# System: not listed separately
# Test: Oral bioavailability in Wistar-Han rat at 2 mg/kg
# Format: ADME, organism-based
# Settings: in vivo
row,Structure (SMILES),bioavailability [%]
1,COc1cccc2[nH]c(C(=O)N[C@@H](CC(C)C)C(=O)N[C@@H](C[C@@H]3CCNC3=O)C(=O)CO)cc12 [PF-00835231],< 2

# System: not listed separately
# Test: Oral bioavailability in rat at 3 mg/kg measured upto 24 hrs by LC-MS analysis
# Format: ADME, organism-based
# Settings: in vivo
row,Structure (SMILES),bioavailability [%]
1,COC(=O)N[C@H](C(=O)N1CC[C@@H](C(F)(F)F)C[C@H]1C(=O)N[C@@H](CCC(C)(F)F)C(=O)C(=O)NC1CC1)C(C)(C)C,40
2,COC(=O)N[C@H](C(=O)N1CCC2(CC2)C[C@H]1C(=O)N[C@@H](CCC(C)(F)F)C(=O)C(=O)NC1CC1)C(C)(C)C,60
3,COC(=O)N[C@H](C(=O)N1C[C@@H]2CCC[C@@H]2[C@H]1C(=O)N[C@@H](CCC(C)(F)F)C(=O)C(=O)NC1CC1)C(C)(C)C,47
4,COC(=O)N[C@H](C(=O)N1CC2(CCCCC2)C[C@H]1C(=O)N[C@@H](CCC(C)(F)F)C(=O)C(=O)NC1CC1)C(C)(C)C,26
5,CNC(=O)C(=O)[C@H](CCC(C)(F)F)NC(=O)[C@@H]1C[C@H](C(F)(F)F)CCN1C(=O)[C@@H](NC(=O)OC)C(C)(C)C,63
6,COC(=O)N[C@H](C(=O)N1C[C@H]2[C@@H]([C@H]1C(=O)N[C@@H](CCC(C)(F)F)C(=O)C(=O)NC1CC1)C21CCOCC1)C(C)(C)C,40

# Target: CYP3A4 (Homo sapiens, UniProt P08684)
# Sequence (P08684 whole entry): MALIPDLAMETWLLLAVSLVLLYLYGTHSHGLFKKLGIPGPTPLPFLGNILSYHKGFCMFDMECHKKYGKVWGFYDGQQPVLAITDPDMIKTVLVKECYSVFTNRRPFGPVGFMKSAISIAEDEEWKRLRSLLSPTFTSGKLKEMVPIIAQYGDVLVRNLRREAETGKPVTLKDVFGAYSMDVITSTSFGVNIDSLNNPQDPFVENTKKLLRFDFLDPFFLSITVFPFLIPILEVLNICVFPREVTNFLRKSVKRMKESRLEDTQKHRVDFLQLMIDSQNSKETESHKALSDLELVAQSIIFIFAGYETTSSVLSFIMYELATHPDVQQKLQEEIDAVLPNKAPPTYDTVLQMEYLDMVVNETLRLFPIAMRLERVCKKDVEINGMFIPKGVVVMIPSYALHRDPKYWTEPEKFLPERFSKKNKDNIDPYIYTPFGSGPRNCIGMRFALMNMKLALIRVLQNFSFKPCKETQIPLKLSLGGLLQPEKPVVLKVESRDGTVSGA
# Test: Ratio of IC50 for time dependent inhibition of CYP3A4 in human liver microsomes incubated for 30 mins in presence of NADPH to IC50 for time dependent inhibition of CYP3A4 in human liver microsomes incubated for 30 mins in absence of NADPH
# Parameters: species or system Microsome
# Settings: read-out: Ratio IC50
row,Structure (SMILES),IC50 shift at 0.5 h
1,COC(=O)N[C@H](C(=O)N1CC2(CCCCC2)C[C@H]1C(=O)N[C@@H](CCC(C)(F)F)C(=O)C(N)=O)C(C)(C)C,> 1
2,COC(=O)N[C@H](C(=O)N1CC2(CCCCC2)C[C@H]1C(=O)N[C@@H](CCC(C)(F)F)C(=O)C(=O)NCc1ccncc1)C(C)(C)C,~1
3,COC(=O)N[C@H](C(=O)N1CC2(CCCCC2)C[C@H]1C(=O)N[C@@H](CCC(C)(F)F)C(=O)C(=O)NC1CC1)C(C)(C)C,> 1.3
4,CNC(=O)C(=O)[C@H](CCC(C)(F)F)NC(=O)[C@@H]1CC2(CCCCC2)CN1C(=O)[C@@H](NC(=O)OC)C(C)(C)C,> 1.6
5,COC(=O)N[C@H](C(=O)N1CC2(CCCCC2)C[C@H]1C(=O)N[C@@H](CCC(C)(F)F)C(=O)C(=O)NCc1ccccc1)C(C)(C)C,> 3.1
6,COC(=O)N[C@H](C(=O)N1CC2(CCCCC2)C[C@H]1C(=O)N[C@@H](CCC(C)(F)F)C(=O)C(=O)NC1CCCCC1)C(C)(C)C,> 6

# System: not listed separately
# Test: Oral bioavailability in rat
# Format: ADME, organism-based
# Settings: in vivo
row,Structure (SMILES),bioavailability [%]
1,CC(C)(C)NC(=O)N[C@H](C(=O)N1C[C@H]2[C@@H]([C@H]1C(=O)N[C@@H](C[C@@H]1CCNC1=O)C(=O)C(N)=O)C2(C)C)C(C)(C)C,0.2
2,CC(C)C[C@H](NC(=O)OCc1ccccc1)C(=O)N[C@@H](C[C@@H]1CCNC1=O)C(O)S(=O)(=O)[O-].[Na+] (stereo partly drawn),3

# Target: Replicase polyprotein 1ab (Severe acute respiratory syndrome coronavirus 2, UniProt P0DTD1)
# Test: Inhibition of wild type recombinant SARS-CoV-2 3CLpro (1 to 306 residues) expressed in Escherichia coli (DE3) competent cells using CP488-ESATLQSGLRKAK-(CPQ2)-NH2 as substrate preincubated for 30 mins followed by substrate addition and measured after 4 hrs by FRET assay
# Settings: not given
row,Structure (SMILES),IC50 [nM]
1,COC(=O)N[C@H](C(=O)N1CC2(CCOCC2)C[C@H]1C(=O)N[C@@H](CCC(C)(F)F)C(=O)C(=O)NC1CC1)C(C)(C)C,297
2,CC(F)(F)CC[C@H](NC(=O)[C@@H]1CC2(CCCCC2)CN1C(=O)C(O)c1cccc(F)c1)C(=O)C(=O)NC1CC1 (stereo partly drawn),56
3,CC(C)(C)CC(=O)N1CC2(CCCCC2)C[C@H]1C(=O)N[C@@H](CCC(C)(F)F)C(=O)C(=O)NC1CC1,890
4,COC(=O)N[C@H](C(=O)N1CC2(CCC(F)(F)CC2)C[C@H]1C(=O)N[C@@H](CCC(C)(F)F)C(=O)C(=O)NC1CC1)C(C)(C)C,270
5,COC(=O)N[C@H](C(=O)N1C[C@@H]2CCC[C@@H]2[C@H]1C(=O)N[C@@H](CCC(C)(C)F)C(=O)C(=O)NC1CC1)C(C)(C)C,26
6,COC(=O)N[C@H](C(=O)N1CC2(CCCCC2)C[C@H]1C(=O)N[C@@H](CCC(F)(F)F)C(=O)C(=O)NC1CC1)C(C)(C)C,382
7,CC(F)(F)CC[C@H](NC(=O)[C@@H]1CC2(CCCCC2)CN1C(=O)c1cc2ccccc2[nH]1)C(=O)C(=O)NC1CC1,64
8,COC(=O)N[C@H](C(=O)N1CC2(CCCCC2)C[C@H]1C(=O)N[C@@H](CCC(C)(F)F)C(=O)C(N)=O)C(C)(C)C,25
9,COC(=O)N[C@H](C(=O)N1CC2(CCCCC2)C[C@H]1C(=O)N[C@@H](CCC(F)F)C(=O)C(=O)NC1CC1)C(C)(C)C,123
10,CC(F)(F)CC[C@H](NC(=O)[C@@H]1[C@@H]2[C@H](CN1C(=O)[C@@H](NC(=O)NC1(CS(=O)(=O)C(C)(C)C)CCCCC1)C(C)(C)C)C2(C)C)C(=O)C(=O)NC1CC1,129
11,COC(=O)N[C@H](C(=O)N1CC2(CCCCC2)C[C@H]1C(=O)N[C@@H](CCC(C)(F)F)C(=O)C(=O)NCc1ccncc1)C(C)(C)C,30
12,COC(=O)N[C@H](C(=O)N1CC2(CCCCC2)C[C@H]1C(=O)N[C@@H](CCC(C)(F)F)C(=O)C(=O)NC1CC1)C(C)(C)C,11
13,CCCC[C@H](NC(=O)[C@@H]1CC2(CCCCC2)CN1C(=O)[C@@H](NC(=O)OC)C(C)(C)C)C(=O)C(=O)NC1CC1,715
14,COC(=O)N[C@H](C(=O)N1CC2(CCCCC2)C[C@H]1C(=O)N[C@@H](CC1CC1(F)F)C(=O)C(=O)NC1CC1)C(C)(C)C (stereo partly drawn),355
15,COC(=O)N[C@H](C(=O)N1C[C@@H]2CCC[C@@H]2[C@H]1C(=O)N[C@@H](CC[C@@H](C)F)C(=O)C(=O)NC1CC1)C(C)(C)C,11
16,CC(F)(F)CC[C@H](NC(=O)[C@@H]1CC2(CCCCC2)CN1C(=O)[C@@H](NC(=O)OCc1ccccc1)C1CCCCC1)C(=O)C(=O)NC1CC1,16
17,COC(=O)N[C@H](C(=O)N1C[C@@H]2CCC[C@@H]2[C@H]1C(=O)N[C@@H](CC[C@H](C)F)C(=O)C(=O)NC1CC1)C(C)(C)C,23
18,COC(=O)N[C@H](C(=O)N1CC2(CCCCC2)C[C@H]1C(=O)N[C@@H](CCC(C)(F)F)C(=O)C(=O)NC1CCCCC1)C(C)(C)C,77

# System: not listed separately
# Test: MRT in dog at 3 mg/kg, po or 1 mg/kg, iv measured upto 24 hrs by LC-MS analysis
# Format: ADME, organism-based, Canis lupus familiaris
# Settings: in vivo
row,Structure (SMILES),MRT [h]
1,COC(=O)N[C@H](C(=O)N1CC[C@@H](C(F)(F)F)C[C@H]1C(=O)N[C@@H](CCC(C)(F)F)C(=O)C(=O)NC1CC1)C(C)(C)C,8.6
2,COC(=O)N[C@H](C(=O)N1CCC2(CC2)C[C@H]1C(=O)N[C@@H](CCC(C)(F)F)C(=O)C(=O)NC1CC1)C(C)(C)C,3.6
3,COC(=O)N[C@H](C(=O)N1C[C@@H]2CCC[C@@H]2[C@H]1C(=O)N[C@@H](CCC(C)(F)F)C(=O)C(=O)NC1CC1)C(C)(C)C,2.7
4,COC(=O)N[C@H](C(=O)N1CC2(CCCCC2)C[C@H]1C(=O)N[C@@H](CCC(C)(F)F)C(=O)C(=O)NC1CC1)C(C)(C)C,0.8
5,CNC(=O)C(=O)[C@H](CCC(C)(F)F)NC(=O)[C@@H]1C[C@H](C(F)(F)F)CCN1C(=O)[C@@H](NC(=O)OC)C(C)(C)C,3.1
6,COC(=O)N[C@H](C(=O)N1C[C@H]2[C@@H]([C@H]1C(=O)N[C@@H](CCC(C)(F)F)C(=O)C(=O)NC1CC1)C21CCOCC1)C(C)(C)C,2.4
7,COC(=O)N[C@H](C(=O)N1CC2(C[C@H]1C(=O)N[C@@H](CCC(C)(F)F)C(=O)C(=O)NC1CC1)CC2(F)F)C(C)(C)C (stereo partly drawn),3.2

# Target: T1, Nuclear receptor subfamily 1 group I member 2 (Homo sapiens, UniProt O75469)
# T1 sequence (O75469 whole entry): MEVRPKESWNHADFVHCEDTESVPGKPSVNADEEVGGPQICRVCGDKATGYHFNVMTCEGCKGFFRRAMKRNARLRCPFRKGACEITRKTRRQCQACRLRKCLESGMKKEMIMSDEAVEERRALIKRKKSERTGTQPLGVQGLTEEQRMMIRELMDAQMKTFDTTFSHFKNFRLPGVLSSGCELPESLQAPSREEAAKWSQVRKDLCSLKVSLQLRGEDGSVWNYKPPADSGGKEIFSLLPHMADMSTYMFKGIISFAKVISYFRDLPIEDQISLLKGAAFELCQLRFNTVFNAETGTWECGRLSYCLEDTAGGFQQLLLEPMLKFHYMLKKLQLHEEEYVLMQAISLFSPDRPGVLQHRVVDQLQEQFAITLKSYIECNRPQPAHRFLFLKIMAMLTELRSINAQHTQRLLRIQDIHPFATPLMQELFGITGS
# Test: Activation of PXR (unknown origin)
# Format: toxicity
# Settings: not given
row,Structure (SMILES),EC50 [nM]
1,COC(=O)N[C@H](C(=O)N1CC2(CCCCC2)C[C@H]1C(=O)N[C@@H](CCC(C)(F)F)C(=O)C(N)=O)C(C)(C)C,> 30000
2,COC(=O)N[C@H](C(=O)N1CC2(CCCCC2)C[C@H]1C(=O)N[C@@H](CCC(C)(F)F)C(=O)C(=O)NCc1ccncc1)C(C)(C)C,> 30000
3,COC(=O)N[C@H](C(=O)N1CC2(CCCCC2)C[C@H]1C(=O)N[C@@H](CCC(C)(F)F)C(=O)C(=O)NC1CC1)C(C)(C)C,6800
4,CNC(=O)C(=O)[C@H](CCC(C)(F)F)NC(=O)[C@@H]1CC2(CCCCC2)CN1C(=O)[C@@H](NC(=O)OC)C(C)(C)C,5800
5,COC(=O)N[C@H](C(=O)N1CC2(CCCCC2)C[C@H]1C(=O)N[C@@H](CCC(C)(F)F)C(=O)C(=O)NCc1ccccc1)C(C)(C)C,3900
6,COC(=O)N[C@H](C(=O)N1CC2(CCCCC2)C[C@H]1C(=O)N[C@@H](CCC(C)(F)F)C(=O)C(=O)NC1CCCCC1)C(C)(C)C,2300
